Starred links: 1 amine or outer side, 2 acyl side, 3 side chain; linkers in the order of their positions; H or OH if unused. Positions of bridges follow the written chain, without caps; N, C: chain ends. Non-standard residues stand in square brackets, D forms with d. Residues, ends and D or L forms follow the SMILES beside them. Chains are numbered I, II in the order given. No end group written: not given here. *: point of attachment. Fluorescein(5-Mal) = O=C1OC2(c3ccc(O)cc3Oc3cc(O)ccc32)c2ccc(N3C(=O)CC(*)C3=O)cc21; CH2 = C([*:1])[*:2]
How the values were obtained:
HeLa cells [1] = experiment: Flow cytometry annexin V-FITC/PI apoptosis / viability assay; type: cell-based
Experimental: Induction of apoptosis in Hela cell lines by treatment with cyclic peptides was determined using annexin V-FITC/propidium iodide(PI) apoptosis detection kit (BD Biosciences) according to the manufacturer's protocol. 2×10^5 cells/well were treated with inhibitors for 24- and 48-hours in a dose dependent manner. Apoptotic cells were determined as annexin V-FITC positive and PI negative. DMSO and MG132 were used as negative and positive controls respectively. Samples were acquired on a Becton Dickinson LSR II flow cytometer (BD Biosciences) and analyzed using Flowjo software.

biotin-tetra-UbK48 = target: T1, biotin-tetra-UbK48 (Homo sapiens, UniProt P0CG47); experiment: Fluorescence-based competitive assay for peptide screening (relative binding vs Ub4_ix); conditions: 5 molar equiv unlabeled peptide, competition with Ub4_ix-FITC; fluorescence inversely proportional to affinity
T1 construct: a Ub polymer comprises Ub monomers linked to one another at lysine (Lys) residue at position 48 (K48); made in house; host or cells: total chemical synthesis (no expression host)
Experimental: Streptavidin-coated microplate (96 well plate) was washed (3×100 μl) with HEPES buffer. Then, 1 μg of biotin-tetra-UbK48 in 100 μl of HEPES buffer was incubated in each well for 30 minutes at room temperature (RT). Additional wells were kept free of biotin-tetra-UbK48 for subsequent blank subtraction. Following a washing step, unlabeled candidate peptides, including peptide-standard (Ub4_ix), were incubated in an excess amount (5 molar equiv. relative to biotin-tetra-UbK48) for 30 minutes at RT to saturate binding to the target. […] Finally, following washing, each well was treated with 100 μl of 6 M Gn·HCl at RT for 30 minutes to release the bound peptides. Then, the solution with the released peptides was transferred to Nunc black 96-well plate and fluorescence was measured (λ excitation=480 nm and λ emission=525 nm). The obtained values were then normalized, and compared with peptide standard, while the fluorescence signal was inversely proportional to the binding affinity of the peptide. The calculations of relative change in binding were performed according to the formula: Y=−[1−(a/b)]×100, where Y is the change in the signal relative to the standard Ub4_ix (in percentage); a is signal measured for each peptide variant (in relative fluorescence units); b is signal measured for Ub4_ix.
The inventors envisioned a screening strategy to proceed through four main steps, each terminated by washings with binding buffer. First, biotin tagged tetra-UbK48 was immobilized in a constant amount (1 μg per well) in streptavidin covered 96 well plate (FIG. 1(i and ii)). Then, unlabeled candidate peptides were incubated in excess in each well to saturate binding to the target. […] Finally, the bound peptides were released from wells by treatment with 6 M guanidine hydrochloride (Gn·HCl) solution followed by measuring the gained fluorescence (FIG. 1(i)). The obtained values were then compared to the fluorescence of the control well containing the unlabeled peptide to calculate relative binding. The gained fluorescence was inversely proportional to the binding affinity of the peptide candidate. […]

HeLa cells [2] = experiment: Peptide cell uptake, live-cell confocal microscopy; type: cell-based; conditions: 1 μM, 2 hours, confocal microscope, FITC signal
Experimental: HeLa cells (CCL-2™) were purchased from ATCC®. Dulbecco's modified Eagle's medium (DMEM), Eagle's minimum essential medium (EMEM), Fetal bovine serum (FBS), L-Glutamine, antibiotics (penicillin/streptomycin), trypsin/EDTA and phosphate-buffered saline (PBS) were purchased from biological industries. Hoechst 33342 solution (20 mM), SYTOX blue (5 mM) and Lysotracker probes were purchased from Thermo-fisher. μ-Slide 8 well ibiTreat for live-cell confocal microscopy was purchased from ibidi and polylysine hydrobromide was purchased from Sigma. Distribution of fluorescent peptides in live cells was analyzed using a confocal laser scanning microscope (Confocal Zeiss LSM 710) equipped with 40×NA 1.2 water immersion objective. During CLSM analysis the samples were kept at 37° C. in a humidified chamber.
The cells were washed with PBS buffer followed by addition of fresh phenol-free optical medium and live-cell imaging was carried out using a LSM 710 laser scanning confocal microscope equipped with an environmental control module.

tetra-Ub K48 = target: T2, tetra-Ub K48 (Homo sapiens, UniProt P0CG47); experiment: Kd determination of FITC-labeled peptides on immobilized biotin-tetra-UbK48 (fluorescence binding curve); conditions: FITC-labeled peptide, tetra-Ub K48, one site non-cooperative binding model, triplicates; read-out: dissociation constant (Kd)
T2 construct: a Ub polymer comprises Ub monomers linked to one another at lysine (Lys) residue at position 48 (K48); made in house; host or cells: total chemical synthesis (no expression host)
Experimental: (1C) The bound peptides are released using Guanidinium-HCl (Gn·HCl) and the fluorescence intensity is measured. (1ii) A non-limiting schematic representation for measuring the dissociation constant (Kd) of FITC-labeled peptide with different concentrations. (1D) A FITC-labeled cyclic peptide with different concentrations are introduced in different wells for binding to the biotin-tetra Ub. (1E) Washing out the unbounded labeled cyclic peptide. (1F) The bound peptides are released using Gn·HCl and the fluorescence intensity is measured. […] All measurements were performed in triplicates.
To determine the dissociation constant (Kd) of labeled peptides, following immobilization step of biotin-tetra-UbK48, different concentrations of the labeled peptide were incubated. Then, the bound cyclic peptides were released with 6 M Gn·HCl, followed by fluorescence measurement (λex=480 nm and λem=525 nm). […]
First, biotin tagged tetra-UbK48 was immobilized in a constant amount (1 μg per well) in streptavidin covered 96 well plate (FIG. 1(i and ii)). […] Finally, the bound peptides were released from wells by treatment with 6 M guanidine hydrochloride (Gn·HCl) solution followed by measuring the gained fluorescence (FIG. 1(i)). The obtained values were then compared to the fluorescence of the control well containing the unlabeled peptide to calculate relative binding. […]

24: methylene group stapled dimer of Ub4_ix_S7C, —S—CH2—S— bridge ({CH2CO}-WLYLDDCGDWWICG; thioether N-13 (inferred); also: dimer: Cys7 joined to Cys7 of second copy by -S-CH2-S- bridge) [compound 24]
early- and late stage apoptosis compared to Ub4_ix (HeLa cells [1]; HeLa cells, Annexin V/PI, 24 or 48 h): increased early- and late stage apoptosis
induction of cell death (HeLa cells [1]; Hela cells, 24- and 48-hours incubation): able to induce cell death
change in the relative fluorescence signal compared to Ub4_ix (improved binding) (biotin-tetra-UbK48): ~57%

peptide 23: disulfide bond containing dimeric cyclic peptide of Ub4_ix_S7C ({CH2CO}-WLYLDDCGDWWICG; thioether N-13 (inferred); also: dimer joined by disulfide bond, places not given here)
change in the relative fluorescence signal compared to Ub4_ix (improved binding) (biotin-tetra-UbK48): ~70%

Ub4_ix_S7A: Ub4_ix analogue from Alanine scan, position 7 Ala; likely WLYLDDAGDWWICG (SEQ ID NO: 5) ({CH2CO}-WLYLDDAGDWWICG; thioether N-13 (inferred))
change in the relative fluorescence signal compared to Ub4_ix (improved binding) (biotin-tetra-UbK48): ~13%

CC[C@H](C)[C@@H]1NC(=O)[C@H](Cc2c[nH]c3ccccc23)NC(=O)[C@H](Cc2c[nH]c3ccccc23)NC(=O)[C@H](CC(=O)O)NC(=O)CNC(=O)[C@H](CSCSC[C@@H]2NC(=O)[C@H](CC(=O)O)NC(=O)[C@H](CC(=O)O)NC(=O)[C@H](CC(C)C)NC(=O)[C@H](Cc3ccc(O)cc3)NC(=O)[C@H](CC(C)C)NC(=O)[C@@H](Cc3c[nH]c4ccccc34)NC(=O)CSC[C@@H](C(=O)NCC(=O)N[C@@H](C)C(=O)N[C@@H](CSC3CC(=O)N(c4ccc5c(c4)C(=O)OC54c5ccc(O)cc5Oc5cc(O)ccc54)C3=O)C(N)=O)NC(=O)[C@H]([C@@H](C)CC)NC(=O)[C@H](Cc3c[nH]c4ccccc34)NC(=O)[C@H](Cc3c[nH]c4ccccc34)NC(=O)[C@H](CC(=O)O)NC(=O)CNC2=O)NC(=O)[C@H](CC(=O)O)NC(=O)[C@H](CC(=O)O)NC(=O)[C@H](CC(C)C)NC(=O)[C@H](Cc2ccc(O)cc2)NC(=O)[C@H](CC(C)C)NC(=O)[C@@H](Cc2c[nH]c3ccccc23)NC(=O)CSC[C@@H](C(=O)NCC(=O)N[C@@H](C)C(=O)N[C@@H](CSC2CC(=O)N(c3ccc4c(c3)C(=O)OC43c4ccc(O)cc4Oc4cc(O)ccc43)C2=O)C(N)=O)NC1=O (some centres unmarked) [peptide 30] (I: {CH2CO}-[dW]LYLDDCGDWWICGAC(Fluorescein(5-Mal))-NH2 / II: {CH2CO}-[dW]LYLDDCGDWWICGAC(Fluorescein(5-Mal))-NH2; linker I:7-II:7 via CH2; thioether I:N-I:13, II:N-II:13)
cellular uptake / permeability and localization (HeLa cells [2]): permeability and cytosolic localization
cellular uptake / permeability and localization (HeLa cells [2]; listed as (Ub4_ix_S7C)2CH2-FITC): quickly and efficiently distributed within cells
Kd (tetra-Ub K48): 12.3 ± 1.26 nM

— patent US20230340027A1, “UBIQUITIN HIGH AFFINITY PEPTIDES, AND METHODS OF USING SAME, AND IDENTIFYING SAME” (TECHNION RESEARCH & DEVELOPMENT FOUNDATION LIMITED, priority 2020, published 2023)
